According to patent publication US20130030012A1, “COMPOUNDS” (Glaxo Group Limited, priority 2011, published 2013):
Where two headings read alike, the source gives them in different places.

What was measured:
[1] = target: T1, Lp-PLA2 in human plasma (Homo sapiens, UniProt Q13093); assay: Lp-PLA2 human plasma assay (Thio-PAF assay); format: biochemical; conditions: pooled human plasma; read-out: pIC50 values in the thio-PAF assay (converted)
T1 construct: from tissue; host or cells: pooled human plasma
T1 sequence (Q13093 22-441): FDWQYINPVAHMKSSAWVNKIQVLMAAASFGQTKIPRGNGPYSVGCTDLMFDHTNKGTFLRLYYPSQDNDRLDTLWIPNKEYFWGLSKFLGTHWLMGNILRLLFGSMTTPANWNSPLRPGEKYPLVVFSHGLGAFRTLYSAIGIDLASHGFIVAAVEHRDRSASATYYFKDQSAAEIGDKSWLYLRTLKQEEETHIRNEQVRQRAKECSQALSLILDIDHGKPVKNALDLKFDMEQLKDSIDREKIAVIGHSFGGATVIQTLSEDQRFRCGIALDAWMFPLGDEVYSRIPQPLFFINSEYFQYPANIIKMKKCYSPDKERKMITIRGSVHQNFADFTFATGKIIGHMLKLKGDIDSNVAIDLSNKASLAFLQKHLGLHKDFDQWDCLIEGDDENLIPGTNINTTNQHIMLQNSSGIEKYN
Description: The human plasma assay utilizes a thioester analog of PAF (phosphatidylcholine), where hydrolysis yields to the formation of a phospholipid containing a free thiol group. The amount of thiol is quantitated continuously by reacting with CPM (7-diethylamino-3-(4′-maleimidylphenyl)-4-methylcoumarin), a maleimide which increases in fluoresence after Michael addition of thiols. This assay may detect the activity of Lp-PLA2 in human plasma, as determined by specific inhibition by Lp-PLA2 inhibitors.
The thio-PAF assay was run as a quenched 15 μL assay. Compounds source plate was prepared by making 1:3 (by volume) serial dilution of the compounds into pure DMSO on 384-well microplate. 0.01 μL of compounds on compound source plate were transferred to 384 well Greiner 784076 (black) low-volume plates by ECHO liquid dispenser. 8 μL pooled human plasma, which was previously aliquoted and frozen, was added. Plates were centrifuged for 10 sec at 500 rpm. After 30 minutes preincubation, 2 μL of substrate solution comprising 2.5 mM 2-thio-PAF [from ethanol stock], […] CPM [from a DMSO stock] and 3.2 mM NEM (N-ethylmaleimide) [made fresh daily in DMSO] in assay buffer of 50 mM HEPES, pH 7.4, 150 mM NaCl, 1 mM CHAPS was added to 384 well Greiner 784076 (black) low-volume plates by BRAVO liquid handling station. After 2 mins, reaction was quenched with 5 μL of 5% aqueous trifluoroacetic acid (TFA). Plates were covered to protect from light and incubated for 40 min at room temperature. Plates were read at ex: 380/em: 485 using—Envision microplate reader. pIC50 data, curve and QC analysis was conducted by using XLFit module in Excel.

[2] = target: T2, recombinant human Lp-PLA2 (Homo sapiens, UniProt Q13093); assay: Recombinant human Lp-PLA2 assay (rhLp-PLA2, PED6 assay); format: biochemical; conditions: upper limit for pIC50 in this assay is 9.3
T2 sequence (Q13093 22-441): T1 sequence (Q13093 22-441)
Description: (1) Recombinant Human Lp-PLA2 Assay (rhLp-PLA2) (Also Referred to as “PED6” Assay)
N-((6-(2,4-dinitrophenyl)amino)-hexanoyl)-2-(4,4-difluoro-5,7-dimethyl-4-bora-3a,4a-diaza-s-indacene-3-pentanoyl)-1-hexadecanoyl-sn-glycero-3-phosphoethanolamine, triethylammonium salt (PED6) is a commercially available fluorescently-labeled phospholipid, which is commercially available from Invitrogene and Molecular Probes. There is a quenching […] and a Bodipy fluorescein (FL) group in the sn2 position. Upon cleavage with Lp-PLA2, the Bodipy FL group is liberated and then may result in an increase in fluorescence. Inhibitors of Lp-PLA2 therefore prevent this cleavage and no fluorescent increase is observed.
The PED6 assay was run as an unquenched 10 μL assay. The source plate containing the compounds to be tested was prepared by making 1:3 (by volume) serial dilution of the compounds within DMSO on 384-well microplate. Then, 0.01 μL of the compounds on compound source plate were transferred into 384 well Greiner 784076 (black) plates using ECHO liquid dispenser. 5 μL of recombinant human Lp-PLA2 enzyme (4 nM (or 110 pM) rhLp-PLA2 in assay buffer of 50 mM HEPES, pH 7.4, 150 mM NaCl, 1 mM CHAPS) was added to each well of the plate. Plates were centrifuged for 10 sec at 500 rpm. After 30 minutes preincubation, 5 μL of substrate ([…] (or 5 μM) PED6 [from 5 mM DMSO stock] in assay buffer of 50 mM HEPES, pH 7.4, 150 mM NaCl, 1 mM CHAPS) was added to 384 well Greiner 784076 (black) plates. Plates were centrifuged for 10 sec at 500 rpm. The plate was covered to protect it from light and incubated for 20 min at room temperature. The plates were read for fluorescence intensity at ex: 480/em: 540 using ViewLux microplate imager for Envision spectrofluoroimeters pIC50 data, curve and QC analysis was conducted by using XL fit module in Excel.
The compounds described below were tested generally according to the PED6 assay described above.

[3] = Table 1, read-out: rhLp-PLA2 (PED6 assay) (pIC50) (converted)
[4] = read-out: pIC50 values in the PED6 assay (converted)

Compound | IC50 [1] [nM] | IC50 [2, 3] [nM] | IC50 [2, 4] [nM]
N#Cc1cc(COc2cc3n(c(=O)n2)CCCN3)ccc1Oc1cccc(C(F)(F)F)c1 [Example 53, 5-(((6-oxo-2,3,4,6-tetrahydro-1H-pyrimido[1,6-a]pyrimidin-8-yl)oxy)methyl)-2-(3-(trifluoromethyl)phenoxy)benzonitrile] | ≤ 100 | 1 | ≤ 1
CN1CCCn2c1cc(OCCc1ccc(Oc3ccc(C(F)(F)F)c(Cl)c3)cn1)nc2=O [Example 54, 8-(2-(5-(3-chloro-4-(trifluoromethyl)phenoxy)pyridin-2-yl)ethoxy)-1-methyl-3,4-dihydro-1H-pyrimido[1,6-a]pyrimidin-6(2H)-one] | ≤ 1000 |  | ≤ 10
CN1CCCn2c1cc(OCCc1ccc(Oc3ccc(Cl)c(C(F)(F)F)c3)cc1)nc2=O [Example 55, 8-(4-(4-chloro-3-(trifluoromethyl)phenoxy)phenethoxy)-1-methyl-3,4-dihydro-1H-pyrimido[1,6-a]pyrimidin-6(2H)-one] | ≤ 100 |  | ≤ 1
Cc1ccc(Oc2ccc(COc3cc4n(c(=O)n3)CCCN4C)cc2C#N)cn1 [Example 56, 5-(((1-methyl-6-oxo-2,3,4,6-tetrahydro-1H-pyrimido[1,6-a]pyrimidin-8-yl)oxy)methyl)-2-((6-methylpyridin-3-yl)oxy)benzonitrile] | ≤ 100 |  | ≤ 1
CN1CCCn2c1cc(OCc1ccc(Oc3cc(F)cc(F)c3)c(F)c1)nc2=O [Example 58, 8-((4-(3,5-difluorophenoxy)-3-fluorobenzyl)oxy)-1-methyl-3,4-dihydro-1H-pyrimido[1,6-a]pyrimidin-6(2H)-one] | ≤ 100 | < 0.501 | ≤ 1
CN1CCCn2c1cc(OCc1ccc(Oc3ccc(F)cc3)c(F)c1)nc2=O [Example 74, 8-((3-fluoro-4-(4-fluorophenoxy)benzyl)oxy)-1-methyl-3,4-dihydro-1H-pyrimido[1,6-a]pyrimidin-6(2H)-one] | ≤ 1000 |  | ≤ 10
O=c1nc(OCc2cc(F)c(Oc3ccc(C(F)(F)F)nc3)c(F)c2)cc2n1CCCN2 [Example 75, 8-((3,5-difluoro-4-((6-(trifluoromethyl)pyridin-3-yl)oxy)benzyl)oxy)-3,4-dihydro-1H-pyrimido[1,6-a]pyrimidin-6(2H)-one] | ≤ 100 | < 0.501 | ≤ 1
CN1CCCn2c1cc(OCc1ccc(Oc3cccnc3)c(C#N)c1)nc2=O [Example 76, 5-(((1-methyl-6-oxo-2,3,4,6-tetrahydro-1H-pyrimido[1,6-a]pyrimidin-8-yl)oxy)methyl)-2-(pyridin-3-yloxy)benzonitrile] | ≤ 100 | 1.26 | ≤ 10
CN1CCCn2c1cc(OCc1ccc(Oc3cccc(C(F)(F)F)c3)cc1)nc2=O [Example 77, 1-methyl-8-((4-(3-(trifluoromethyl)phenoxy)benzyl)oxy)-3,4-dihydro-1H-pyrimido[1,6-a]pyrimidin-6(2H)-one] | ≤ 1000 |  | ≤ 10
CN1CCCn2c1cc(OCc1cc(F)c(Oc3cccc(F)c3)c(F)c1)nc2=O [Example 78, 8-((3,5-difluoro-4-(3-fluorophenoxy)benzyl)oxy)-1-methyl-3,4-dihydro-1H-pyrimido[1,6-a]pyrimidin-6(2H)-one] | ≤ 1000 |  | ≤ 10
CN1CCCn2c1cc(OCc1cc(F)c(Oc3cc(F)cc(F)c3)c(F)c1)nc2=O [Example 79, 8-((4-(3,5-difluorophenoxy)-3,5-difluorobenzyl)oxy)-1-methyl-3,4-dihydro-1H-pyrimido[1,6-a]pyrimidin-6(2H)-one] | ≤ 100 | 0.794 | ≤ 1
CN1CCCn2c1cc(OCc1ccc(Oc3cccc(F)c3)c(C#N)c1)nc2=O [Example 80, 2-(3-fluorophenoxy)-5-(((1-methyl-6-oxo-2,3,4,6-tetrahydro-1H-pyrimido[6-a]pyrimidin-8-yl)oxy)methyl)benzonitrile] | ≤ 100 |  | ≤ 1
CN1CCCn2c1cc(OCc1cc(F)c(Oc3cccc(C(F)(F)F)c3)c(F)c1)nc2=O [Example 81, 8-((3,5-difluoro-4-(3-(trifluoromethyl)phenoxy)benzyl)oxy)-1-methyl-3,4-dihydro-1H-pyrimido[1,6-a]pyrimidin-6(2H)-one] | ≤ 100 |  | ≤ 1
CN1CCCn2c1cc(OCc1cc(F)c(Oc3ccc(Cl)c(F)c3)c(F)c1)nc2=O [Example 82, 8-((4-(4-chloro-3-fluorophenoxy)-3,5-difluorobenzyl)oxy)-1-methyl-3,4-dihydro-1H-pyrimido[1,6-a]pyrimidin-6(2H)-one] | ≤ 100 |  | ≤ 1
CN1CCCn2c1cc(OCc1cc(F)c(Oc3ccc(F)c(Cl)c3)c(F)c1)nc2=O [Example 83, 8-((4-(3-chloro-4-fluorophenoxy)-3,5-difluorobenzyl)oxy)-1-methyl-3,4-dihydro-1H-pyrimido[1,6-a]pyrimidin-6(2H)-one] | ≤ 100 | < 0.501 | ≤ 1
CN1CCCn2c1cc(OCc1ccc(Oc3ccc(F)c(Cl)c3)c(C#N)c1)nc2=O [Example 84, 2-(3-chloro-4-fluorophenoxy)-5-(((1-methyl-6-oxo-2,3,4,6-tetrahydro-1H-pyrimido[1,6-a]pyrimidin-8-yl)oxy)methyl)benzonitrile] | ≤ 100 |  | ≤ 1
CN1CCCn2c1cc(OCc1ccc(Oc3cccc(C#N)c3)c(F)c1)nc2=O [Example 85, 3-(2-fluoro-4-(((1-methyl-6-oxo-2,3,4,6-tetrahydro-1H-pyrimido[1,6-a]pyrimidin-8-yl)oxy)methyl)phenoxy)benzonitrile] | ≤ 1000 |  | ≤ 10
CN1CCCn2c1cc(OCc1cc(F)c(Oc3ccc(F)cc3)c(F)c1)nc2=O [Example 87, 8-((3,5-difluoro-4-(4-fluorophenoxy)benzyl)oxy)-1-methyl-3,4-dihydro-1H-pyrimido[1,6-a]pyrimidin-6(2H)-one] | ≤ 1000 |  | ≤ 10
CN1CCCn2c1cc(OCc1cc(F)c(Oc3ccc(F)c(C(F)(F)F)c3)c(F)c1)nc2=O [Example 88, 8-((3,5-difluoro-4-(4-fluoro-3-(trifluoromethyl)phenoxy)benzyl)oxy)-1-methyl-3,4-dihydro-1H-pyrimido[1,6-a]pyrimidin-6(2H)-one] | ≤ 100 |  | ≤ 1
CN1CCCn2c1cc(OCc1cc(F)c(Oc3ccc(C(F)(F)F)cc3)c(F)c1)nc2=O [Example 89, 8-((3,5-difluoro-4-(4-(trifluoromethyl)phenoxy)benzyl)oxy)-1-methyl-3,4-dihydro-1H-pyrimido[1,6-a]pyrimidin-6(2H)-one] | ≤ 100 |  | ≤ 10
